Here are results for 24 compounds from US9604998B2, “Inhibitors of the renal outer medullary potassium channel” (MERCK SHARP & DOHME CORP., priority 2013, dated 2017).

For one experiment, the target named is Kir1.1 (ROMK1) (Homo sapiens (Human), UniProt P48048). Nature of the experiment: Electrophysiology Assay (whole cell voltage clamp, IonWorks Quattro). In kind it is cell-based. The settings on record: block during voltage step to 0 mV. The protocol:
Chinese hamster ovary cells stably expressing Kir1.1 channels were maintained in T-75 flasks in cell culture media in a humidified 10% CO2 incubator at 37° C. Prior to an experiment, Kir1.1 expression was induced by overnight incubation with 1 mM sodium butyrate. […] After centrifugation, the cell pellet was resuspended in approximately 4.0 mL of bath solution and placed in the IonWorks instrument. The intracellular solution consisted of (in mM): 80 K gluconate, 40 KCl, 20 KF, 3.2 MgCl2, 3 EGTA, 5 Hepes, pH 7.4. Electrical access to the cytoplasm was achieved by perforation in 0.13 mg/mL amphotericin B for 4 min. […] Voltage protocols and current recordings were performed using the IonWorks HT software/hardware system. Currents were sampled at 1 kHz. No correction for liquid junction potentials was used. The test pulse, consisting of a 100 ms step to 0 mV from a holding potential of −70 mV, followed by a 100 ms voltage ramp from −70 mV to +70 mV, was applied before and after a 6 min compound incubation period. Test compounds were prepared by diluting DMSO stock solutions into the bath solution at 3× the final concentration and placed in the instrument in 96-well polypropylene plates. Current amplitudes were measured using the IonWorks software.
A general note: In patch-clamp work, channel activity is measured electrically.

The next experiment has as its target hROMK (hKir1.1) (Homo sapiens (Human), UniProt P48048). Briefly: Thallium Flux Assay (ROMK channel functional thallium flux, FLIPR-Tetra). It counts as cell-based. The protocol:
HEK293 cells stably expressing hROMK (hKir1.1) were grown at 37° C. in a 10% CO2 humidified incubator in complete growth media: Dulbecco's Modified Eagle Medium supplemented with non-essential amino acids, Penicillin/Streptomycin/Glutamine, G418 and FBS. At >80% confluency, aspirate the media from the flask and rinse with 10 mL Calcium/Magnesium-free PBS. […] To dislodge the cell, gently bang the side of the flask with your hand. Triturate the cells completely and then transfer the cells to 25 mL complete media. Centrifuge at 1,500 rpm for 6 min followed by resuspension in complete growth media and determine cell concentration.
Compound Buffer (per microplate): 20 mL Probenecid/Assay Buffer; 0.3 mM ouabain (10 mM ouabain in water can be stored in amber bottle/aluminum foil at room temperature); Test compound
Stimulant Buffer (prepared at 5× final concentration in 1× FluxOR™ Chloride-Free Buffer): 7.5 mM Thallium sulfate and […] (to give a final assay concentration of 3 mM Thallium/0.3 mM Potassium). Store at 4° C. when not in use. If kept sterile, this solution is good for months.
The ROMK channel functional thallium flux assay is performed in 384 wells, using the FLIPR-Tetra instrument. HEK-hKir1.1 cells are seeded in Poly-D-Lysine microplates and kept in a 37° C.-10% CO2 incubator overnight. On the day of the experiment, the growth media is replaced with the FluxOR™ reagent loading buffer and incubated, protected from light, at ambient temperature (23-25° C.) for 90 min. The loading buffer is replaced with assay buffer±test compound followed by 30 min incubation at ambient temperature, where the Thallium/Potassium stimulant is added to the microplate.
1. Seed HEK-hKir1.1 cells (50 μl at 20,000 cells/well) in 384-well PDL coated Microplates
2. Allow cells to adhere overnight in humidified 37° C./10% CO2 incubator
3. Completely remove cell growth media from microplate and replace with 25 μl loading buffer
4. Incubate Microplate at room temperature, protected form light, for 90 min
5. Remove loading buffer and replace with 25 μl 1× Assay Buffer±test compound.
6. Incubate microplate at room temperature, protected from light, for 30 min
7. […] Excitation=400 nm, Emission=460 & 580 nm. Collect data for ˜10 min.
The fluorescence intensity of wells containing 3 μM of a standard control ROMK inhibitor of the present invention is used to define the ROMK-sensitive component of thallium flux. Fluorescence in the presence of test compounds is normalized to control values to provide % fluorescence change.

Where [1] appears, read: Chinese hamster ovary cells stably expressing Kir1.1, read-out: Electrophysiology IC50.
The mark [2] stands for this setting: HEK293 cells stably expressing hROMK (hKir1.1), read-out: Thallium Flux IC50.

Structures can show the parent of a compound that is named as a salt. Where two headings read alike, the source gives them in different places.

Kir1.1 (ROMK1), sequence (P48048 whole entry, species assumed): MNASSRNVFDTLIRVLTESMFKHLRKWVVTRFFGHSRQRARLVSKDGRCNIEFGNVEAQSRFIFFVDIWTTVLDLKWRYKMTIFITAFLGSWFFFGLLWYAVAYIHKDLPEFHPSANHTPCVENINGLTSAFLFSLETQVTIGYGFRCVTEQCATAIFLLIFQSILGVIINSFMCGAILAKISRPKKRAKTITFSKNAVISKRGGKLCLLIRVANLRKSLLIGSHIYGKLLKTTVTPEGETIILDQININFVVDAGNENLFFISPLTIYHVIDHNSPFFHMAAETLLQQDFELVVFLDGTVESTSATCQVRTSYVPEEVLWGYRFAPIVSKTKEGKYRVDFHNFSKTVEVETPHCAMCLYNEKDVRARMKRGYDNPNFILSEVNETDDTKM
hROMK (hKir1.1), sequence (P48048 whole entry): as the sequence (P48048 whole entry, species assumed) above

For `Cc1c([C@@H]2CN3CCN(C[C@H](O)c4ccc5c(c4C)COC5=O)C[C@H]3CO2)ccc2c1COC2=O` [Example 3, 5-((R)-1-hydroxy-2-((3R,9aS)-3-(4-methyl-1-oxo-1,3-dihydroisobenzofuran-5-yl)hexahydropyrazino[2,1-c][1,4]oxazin-8(1H)-yl)ethyl)-4-methylisobenzofuran-1(3H)-one], the half-inhibitory concentration (IC50) turned out to be 50 nM at Kir1.1 (ROMK1) (setting [1]) and 120 nM on hROMK (hKir1.1) (setting [2]).
Regarding `Cc1c([C@@H]2CN3CCN(CCc4ccc5c(c4)COC5=O)C[C@H]3CO2)ccc2c1COC2=O` [Example 64], the IC50 at Kir1.1 (ROMK1) (setting [1]) and on hROMK (hKir1.1) (setting [2]) was 40 nM in each case.
With `COc1cc(C(O)CN2CCN3C[C@@H](c4ccc5c(c4C)COC5=O)OC[C@@H]3C2)cc(F)c1C#N` (stereo partly drawn) [Example 48, (3R,9aS)-8-[2-(4-cyano-3-fluoro-5-methoxyphenyl)-2-hydroxyethyl]-3-(4-methyl-1-oxo-1,3-dihydro-2-benzofuran-5-yl)octahydropyrazino[2,1-c][1,4]oxazin-5-ium chloride], the IC50 on Kir1.1 (ROMK1) (setting [1]) worked out at 210 nM; on hROMK (hKir1.1) (setting [2]), 220 nM.
On to `Cc1cc2c(cc1C(O)CN1CCN3C[C@@H](c4ccc(F)c(C#N)c4C)OC[C@@H]3C1)COC2=O` (single isomer, unassigned) [Example 24, trifluoroacetate], for which the IC50 on Kir1.1 (ROMK1) (Electrophysiology IC50, Chinese hamster ovary cells stably expressing Kir1.1) was determined as 240 nM; on hROMK (hKir1.1) (Thallium Flux IC50, HEK293 cells stably expressing hROMK (hKir1.1)) it was 450 nM.
On to `Cc1c([C@H]2CN3CCN(CC(O)c4ccc(-n5cnnn5)nc4)C[C@H]3CO2)ccc(F)c1C#N` (single isomer, unassigned) [Example 17], for which the IC50 on Kir1.1 (ROMK1) (setting [1]) amounted to 150 nM; at hROMK (hKir1.1) (setting [2]), 850 nM.
The corresponding values for `Cc1c([C@@H]2CN3CCN(CC(O)c4cc(F)c(C#N)c(F)c4)C[C@H]3CO2)ccc2c1COC2=O` (stereo partly drawn) [Example 38, (3R,9aS)-8-[2-(4-cyano-3,5-difluorophenyl)-2-hydroxyethyl]-3-(4-methyl-1-oxo-1,3-dihydro-2-benzofuran-5-yl)octahydropyrazino[2,1-c][1,4]oxazin-5-ium chloride] are 120 nM and 440 nM.
The matching figures for `Cc1c(C(C)CN2CCN3C[C@@H](c4ccc5c(c4C)COC5=O)OC[C@@H]3C2)ccc2c1COC2=O` (stereo partly drawn) [Example 90]: 230 nM and 110 nM.
The matching figures for `Cc1c([C@@H]2CN3CCN(CCc4ccc5c(c4)COC5=O)C[C@@H]3CN2)ccc(F)c1C#N` [Example 105]: 150 nM and 290 nM.
On to `Cc1c(C(O)CN2CCN3C[C@@H](c4ccc5c(c4C)COC5=O)OC[C@@H]3C2)ccc(F)c1C#N` (stereo partly drawn) [Example 13, (3R,9aS)-8-[2-(3-cyano-4-fluoro-2-methylphenyl)-2-hydroxyethyl]-3-(4-methyl-1-oxo-1,3-dihydro-2-benzofuran-5-yl)octahydropyrazino[2,1-c][1,4]oxazin-5-ium trifluoroacetate], for which the results for the IC50 on Kir1.1 (ROMK1) (setting [1]) and at hROMK (hKir1.1) (setting [2]) were 220 nM and 270 nM, respectively.
Regarding `Cc1c([C@H]2CN3CCN(CCc4ccc5c(c4)COC5=O)C[C@@H]3CN2)ccc(F)c1C#N` [Example 106], the IC50 on Kir1.1 (ROMK1) (setting [1]) was found to be 50 nM; at hROMK (hKir1.1) (setting [2]) it was 130 nM.
The corresponding values for `Cc1c([C@@H](O)CN2CCN3C[C@@H](c4ccc(C#N)c(F)c4)OC[C@H]3C2)ccc2c1COC2=O` [Example 29, (3R,9aR)-3-(4-cyano-3-fluorophenyl)-8-[(2R)-2-hydroxy-2-(4-methyl-1-oxo-1,3-dihydro-2-benzofuran-5-yl)ethyl]octahydropyrazino[2,1-c][1,4]oxazin-8-ium chloride] are 80 nM and 490 nM.
Turning to `COc1c(CCN2CCN3C[C@H](c4ccc5c(c4C)COC5=O)OC[C@@H]3C2)ccc(C#N)c1F` [Example 96], the IC50 on Kir1.1 (ROMK1) (setting [1]) amounted to 80 nM; on hROMK (hKir1.1) (setting [2]) it was 210 nM.
The matching figures for `Cc1c([C@H]2CN3CCN(CCc4ccc(-n5cnnn5)nc4)C[C@H]3CO2)ccc(F)c1C#N` [Example 93]: 80 nM and 80 nM.
For the compound `Cc1c([C@H](O)CN2CCN3C[C@@H](c4ccc5c(c4)COC5=O)OC[C@@H]3C2)ccc2c1COC2=O` [Example 12, (3R,9aS)-8-[(2S)-2-hydroxy-2-(4-methyl-1-oxo-1,3-dihydro-2-benzofuran-5-yl)ethyl]-3-(1-oxo-1,3-dihydro-2-benzofuran-5-yl)octahydropyrazino[2,1-c][1,4]oxazin-5-ium chloride], the IC50 turned out to be 30 nM at Kir1.1 (ROMK1) (setting [1]) and 190 nM at hROMK (hKir1.1) (setting [2]).
The matching figures for `COc1cc([C@@H]2CN3CCN(CCc4ccc5c(c4C)COC5=O)C[C@@H]3CO2)ccc1C#N` [Example 76]: 90 nM and 440 nM.
The matching figures for `COc1cc([C@@H]2CN3CCN(CCc4ccc5c(c4C)COC5=O)C[C@H]3CO2)ccc1C#N` [Example 71]: 200 nM and 110 nM.
The matching figures for `COc1cc(C(O)CN2CCN3C[C@@H](c4ccc5c(c4)COC5=O)OC[C@@H]3C2)c(Cl)cc1C#N` (stereo partly drawn) [Example 10, (3R,9aS)-8-[2-(2-chloro-4-cyano-5-methoxyphenyl)-2-hydroxyethyl]-3-(1-oxo-1,3-dihydro-2-benzofuran-5-yl)octahydropyrazino[2,1-c][1,4]oxazin-5-ium trifluoroacetate]: 130 nM and 550 nM.
Turning to `COc1c(CCN2CCN3C[C@H](c4ccc5c(c4C)COC5=O)OC[C@H]3C2)ccc(C#N)c1F` [Example 94], the half-maximal inhibitory concentration (IC50) was found to be 140 nM at Kir1.1 (ROMK1) (setting [1]) and 240 nM on hROMK (hKir1.1) (setting [2]).
The matching figures for `Cc1c([C@@H]2CN3CCN(CCc4ccc5c(c4)C[C@@H](C)OC5=O)C[C@H]3CO2)ccc2c1COC2=O` [Example 87]: 50 nM and 110 nM.
Regarding `COc1cc(C(O)CN2CCN3C[C@@H](c4ccc5c(c4C)COC5=O)OC[C@@H]3C2)c(F)cc1C#N` (stereo partly drawn) [Example 15, (3R,9aS)-8-[2-(4-cyano-2-fluoro-5-methoxyphenyl)-2-hydroxyethyl]-3-(4-methyl-1-oxo-1,3-dihydro-2-benzofuran-5-yl)octahydropyrazino[2,1-c][1,4]oxazin-5-ium chloride], the IC50 at Kir1.1 (ROMK1) (setting [1]) amounted to 290 nM; at hROMK (hKir1.1) (setting [2]) it was 670 nM.
Consider `Cc1c([C@@H]2CN3CCN(CC(O)c4cccc(-n5cnnn5)c4)C[C@@H]3CO2)ccc(F)c1C#N` (single isomer, unassigned) [Example 22], for which the IC50 is 440 nM at Kir1.1 (ROMK1) (setting [1]) and 310 nM at hROMK (hKir1.1) (setting [2]).
`Cc1c([C@H]2CN3CCN(C[C@H](O)c4ccc5c(c4)COC5=O)C[C@@H]3CN2)ccc(F)c1C#N` [Example 108]: the IC50 at Kir1.1 (ROMK1) (setting [1]) and on hROMK (hKir1.1) (setting [2]) was 100 nM in each case.
On to `COc1c(CCN2CCN3C[C@@H](c4ccc5c(c4C)COC5=O)OC[C@@H]3C2)ccc(C#N)c1F` [Example 95], for which the values for the IC50 on Kir1.1 (ROMK1) (setting [1]) and on hROMK (hKir1.1) (setting [2]) were 110 nM and 120 nM, respectively.
With `Cc1c([C@@H]2CN3CCN(CCc4cc(F)c(C#N)c(F)c4)C[C@H]3CO2)ccc2c1COC2=O` [Example 98], the 50% inhibitory concentration (IC50) on Kir1.1 (ROMK1) (setting [1]) is 90 nM; at hROMK (hKir1.1) (setting [2]), 170 nM.

Broadly, the IC50 is the concentration that inhibits the measured activity by half.
